Measurements reported in patent US11535606B2, “Substituted quinoline-8-carbonitrile derivatives with androgen receptor degradation activity and uses thereof” (ACCUTAR BIOTECHNOLOGY INC., priority 2019, dated 2022).
Positions count from the first letter of the chain named.

Legend:
Type in all cases: cell-based
Settings in all cases: 24 hours after administration, DC50 = concentration needed for 50% target protein degradation
[1] = biological target: T1, androgen receptor (AR) (Homo sapiens, UniProt P10275, T878A); experiment: AR degradation activity in LNCAP cells (Western blot)
T1 construct: endogenous in cells; host or cells: LNCAP
T1 sequence (P10275 1-920 T878A): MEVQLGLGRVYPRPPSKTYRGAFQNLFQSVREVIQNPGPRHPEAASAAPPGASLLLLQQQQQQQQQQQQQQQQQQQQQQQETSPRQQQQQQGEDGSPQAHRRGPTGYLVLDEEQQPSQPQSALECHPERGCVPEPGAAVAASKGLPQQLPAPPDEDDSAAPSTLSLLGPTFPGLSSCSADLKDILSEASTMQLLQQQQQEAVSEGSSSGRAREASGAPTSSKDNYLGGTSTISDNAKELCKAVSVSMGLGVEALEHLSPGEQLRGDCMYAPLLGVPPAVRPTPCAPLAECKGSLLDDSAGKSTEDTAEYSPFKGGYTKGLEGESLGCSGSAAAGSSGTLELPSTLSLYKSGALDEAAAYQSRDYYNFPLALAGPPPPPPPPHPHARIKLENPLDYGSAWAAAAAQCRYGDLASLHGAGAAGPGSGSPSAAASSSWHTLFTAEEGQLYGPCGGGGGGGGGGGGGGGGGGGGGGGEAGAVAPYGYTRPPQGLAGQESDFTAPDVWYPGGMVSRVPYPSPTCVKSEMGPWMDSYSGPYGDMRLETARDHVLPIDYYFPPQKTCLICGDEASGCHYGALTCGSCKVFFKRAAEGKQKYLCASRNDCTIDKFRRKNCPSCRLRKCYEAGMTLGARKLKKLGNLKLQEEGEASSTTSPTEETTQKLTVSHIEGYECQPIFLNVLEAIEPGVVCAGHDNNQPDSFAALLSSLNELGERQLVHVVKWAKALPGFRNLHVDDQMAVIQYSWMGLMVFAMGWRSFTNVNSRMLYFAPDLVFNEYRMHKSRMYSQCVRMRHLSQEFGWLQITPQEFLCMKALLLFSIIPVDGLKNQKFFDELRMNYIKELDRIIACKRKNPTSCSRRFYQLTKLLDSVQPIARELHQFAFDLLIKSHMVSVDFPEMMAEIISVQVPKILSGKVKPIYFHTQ
Method: (§1) LNCAP, VCAP and 22Rv1 cells were plated in 24-well plates at 1.5×10E5 cells/well in the RPMI growth medium containing 10% FBS and 1% Penicillin Streptomycin, and then incubated at 37° C. overnight. The following day, the test compound was administered to the cells by using 1000× compound stock solution prepared in DMSO at various concentrations. After administration of the compound, the cells were then incubated at 37° C. for 24 hours. Upon completion, the cells were washed with PBS and protein was collected in Laemmli sample buffer (1×; VWR International). Proteins in cell lysate were separated by SDS-PAGE and transferred to Odyssey nitrocellulose membranes (Licor) with Iblot® dry blotting transfer system (ThermoFisher). Nonspecific binding was blocked by incubating membranes with Intercept Blocking Buffer (Licor) for 1 hour at room temperature with gentle shaking. The membranes were then incubated overnight at 4° C. with Primary antibodies rabbit anti-AR (1:1,000, Cell Signaling, 5153) and mouse anti-GAPDH (1:5,000, Santa Cruz Biotechnology, sc-47724) diluted in Intercept Blocking Buffer containing 0.1% Tween 20. After washing 3 times with TBS-T, the membranes were incubated with IRDye® 800CW goat anti-mouse IgG (1:20,000, Licor) or IRDye® 800CW goat anti-rabbit IgG (1:20,000, Licor) for 1 hour. After TBS-T washes, membranes were rinsed in TBS and scanned on Odyssey® CLx Imaging System (Licor). The bands were quantified using Image Studio™ Software (Licor).
(§2) Table 4 summarizes the androgen receptor (AR) degradative activity of exemplary compounds in LNCAP, VCAP and 22Rv1 cell lines 24 hours after administration. DC50: compound concentration needed for 50% target protein degradation.

[2] = biological target: T2, androgen receptor (AR) (Homo sapiens, UniProt P10275); experiment: AR degradation activity in VCAP cells (Western blot)
T2 construct: endogenous in cells; host or cells: VCAP
T2 sequence (P10275 1-920): T1 sequence (P10275 1-920 T878A) with A878T
Method: as §1, §2

[3] = test system: androgen receptor (AR); experiment: AR degradation activity in 22Rv1 cells (Western blot)
Method: as §1, §2

Row | DC50 [1] [nM] | DC50 [2] [nM] | DC50 [3] [nM] | SMILES
1 | < 10 | – | – | N#Cc1ccc(OC2CCC(NC(=O)c3cnc(N4CCC(CN5CCN(c6cc7c(cc6F)C(=O)N(C6CCC(=O)NC6=O)C7=O)CC5)CC4)nc3)CC2)c2cccnc12 (centres unmarked) [Compound 3-51]
2 | < 10 | < 10 | – | N#Cc1ccc(O[C@H]2CC[C@H](NC(=O)c3ccc(N4CCC(CN5CCN(c6ccc7c(c6)C(=O)N(C6CCC(=O)NC6=O)C7=O)CC5)CC4)nn3)CC2)c2cccnc12 (stereo partly drawn) [Compound 3-16, trans-N-(4-((8-cyanoquinolin-5-yl)oxy)cyclohexyl)-6-(4-((4-(2-(2,6-dioxopiperidin-3-yl)-1,3-dioxoisoindolin-5-yl)piperazin-1-yl)methyl)piperidin-1-yl)pyridazine-3-carboxamide]
3 | < 10 | < 10 | – | N#Cc1ccc(O[C@H]2CC[C@H](NC(=O)c3ccc(N4CCC(CN5CCN(c6ccc7c(c6)C(=O)N(C6CCC(=O)NC6=O)C7=O)CC5)CC4)nc3)CC2)c2cccnc12 (relative stereo) [Compound 3-13, trans-N-(4-((8-cyanoquinolin-5-yl)oxy)cyclohexyl)-6-(4-((4-(2-(2,6-dioxopiperidin-3-yl)-1,3-dioxoisoindolin-5-yl)piperazin-1-yl)methyl)piperidin-1-yl)nicotinamide]
4 | < 10 | – | – | N#Cc1ccc(OC2CCC(NC(=O)c3ccc(N4CCC(CN5CCN(c6cc7c(cc6F)C(=O)N(C6CCC(=O)NC6=O)C7=O)CC5)CC4)nc3)CC2)c2cccnc12 (centres unmarked) [Compound 3-35]
5 | < 10 | < 10 | – | N#Cc1ccc(O[C@H]2CC[C@H](NC(=O)c3cnc(N4CCC(CN5CCN(c6ccc7c(c6)C(=O)N(C6CCC(=O)NC6=O)C7=O)CC5)CC4)nc3)CC2)c2cccnc12 (stereo partly drawn) [Compound 3-15, trans-N-(4-((8-cyanoquinolin-5-yl)oxy)cyclohexyl)-2-(4-((4-(2-(2,6-dioxopiperidin-3-yl)-1,3-dioxoisoindolin-5-yl)piperazin-1-yl)methyl)piperidin-1-yl)pyrimidine-5-carboxamide]
6 | < 10 | < 10 | – | N#Cc1ccc(OC2CCC(NC(=O)c3cnc(N4CCC(CN5CCN(c6ccc7c(c6)CN([C@H]6CCC(=O)NC6=O)C7=O)CC5)CC4)nc3)CC2)c2cccnc12 (some centres unmarked) [Compound 3-30]
7 | < 10 | – | – | N#Cc1ccc(OC2CCC(NC(=O)c3cnc(N4CCC(CN5CCN(c6ccc7c(c6)C(=O)N(C6CCC(=O)NC6=O)C7=O)CC5)CC4)cn3)CC2)c2cccnc12 (centres unmarked) [Compound 3-17]
8 | < 10 | < 10 | – | N#Cc1ccc(O[C@H]2CC[C@H](NC(=O)c3ccc(N4CCC(CCN5CCN(c6ccc7c(c6)C(=O)N(C6CCC(=O)NC6=O)C7=O)CC5)CC4)cc3)CC2)c2cccnc12 (relative stereo) [Compound 3-22, trans-N-(4-((8-cyanoquinolin-5-yl)oxy)cyclohexyl)-4-(4-(2-(4-(2-(2,6-dioxopiperidin-3-yl)-1,3-dioxoisoindolin-5-yl)piperazin-1-yl)ethyl)piperidin-1-yl)benzamide]
9 | < 10 | – | – | N#Cc1ccc(O[C@H]2CC[C@H](NC(=O)c3cnc(N4CC[C@H](CN5CCN(c6ccc7c(c6)C(=O)N(C6CCC(=O)NC6=O)C7=O)CC5)C4)nc3)CC2)c2cccnc12 (some centres unmarked) [Compound 3-55]
10 | < 10 | – | – | N#Cc1ccc(O[C@H]2CC[C@H](NC(=O)c3cnc(N4CC[C@@H](CN5CCN(c6ccc7c(c6)C(=O)N(C6CCC(=O)NC6=O)C7=O)CC5)C4)nc3)CC2)c2cccnc12 (some centres unmarked) [Compound 3-54]
11 | < 10 | < 10 | – | N#Cc1ccc(O[C@H]2CC[C@H](NC(=O)c3ccc(N4CCC(CN5CCN(c6ccc7c(c6)C(=O)N(C6CCC(=O)NC6=O)C7=O)CC5)CC4)cc3)CC2)c2cccnc12 (some centres unmarked) [Compound 3-18, N-(4-((8-cyanoquinolin-5-yl)oxy)cyclohexyl)-4-(4-((4-(2-(2,6-dioxopiperidin-3-yl)-1,3-dioxoisoindolin-5-yl)piperazin-1-yl)methyl)piperidin-1-yl)benzamide]
12 | < 10 | < 10 | – | N#Cc1ccc(OC2CCC(NC(=O)c3ccc(N4CCC(CN5CCN(c6ccc7c(c6)C(=O)N(C6CCC(=O)NC6=O)C7=O)CC5)CC4)c(F)c3)CC2)c2cccnc12 (centres unmarked) [Compound 3-19, N-(4-((8-cyanoquinolin-5-yl)oxy)cyclohexyl)-4-(4-((4-(2-(2,6-dioxopiperidin-3-yl)-1,3-dioxoisoindolin-5-yl)piperazin-1-yl)methyl)piperidin-1-yl)-3-fluorobenzamide]

The remaining lines, values behind:

Row | SMILES | DC50 [1] [nM] | DC50 [2] [nM] | DC50 [3] [nM]
13 | N#Cc1ccc(OC2CCC(NC(=O)c3ccc(N4CCC(CN5CCN(c6cc7c(cc6F)C(=O)N(C6CCC(=O)NC6=O)C7=O)CC5)CC4)nn3)CC2)c2cccnc12 (centres unmarked) [Compound 3-36] | < 10 | < 10 | < 10
14 | CC(C)N(CC1CCN(c2ccc(C(=O)NC3CCC(Oc4ccc(C#N)c5ncccc45)CC3)nn2)CC1)C1CC(Oc2ccc3c(c2)C(=O)N(C2CCC(=O)NC2=O)C3=O)C1 (centres unmarked) [Compound 3-43] | < 10 | – | –
15 | CC(C)N(CC1CCN(c2ccc(C(=O)NC3CCC(Oc4ccc(C#N)c5ncccc45)CC3)cn2)CC1)C1CC(Oc2ccc3c(c2)C(=O)N(C2CCC(=O)NC2=O)C3=O)C1 (centres unmarked) [Compound 3-11] | < 10 | – | –
16 | N#Cc1ccc(OC2CCC(NC(=O)c3ccc(N4CCC(CN5CCN(c6cc7c(cc6F)C(=O)N(C6CCC(=O)NC6=O)C7=O)CC5)CC4)c(F)c3)CC2)c2cccnc12 (centres unmarked) [Compound 3-50] | < 10 | – | –
17 | N#Cc1ccc(OC2CCC(NC(=O)c3ccc(N4CCC(CN5CCN(c6cc7c(cc6F)C(=O)N(C6CCC(=O)NC6=O)C7=O)CC5)CC4)cc3)CC2)c2cccnc12 (centres unmarked) [Compound 3-49] | > 100 | – | –
18 | CN(CC1CCN(c2ccc(C(=O)NC3CCC(Oc4ccc(C#N)c5ncccc45)CC3)cn2)CC1)C1CC(Oc2ccc3c(c2)C(=O)N(C2CCC(=O)NC2=O)C3=O)C1 (centres unmarked) [Compound 3-9] | < 10 | – | –
19 | N#Cc1ccc(OC2CCC(NC(=O)c3cnc(N4CCC(CN5CCN(c6cc7c(cc6F)C(=O)N(C6CCC(=O)NC6=O)C7=O)CC5)CC4)cn3)CC2)c2cccnc12 (centres unmarked) [Compound 3-52] | < 10 | – | –
20 | N#Cc1ccc(O[C@H]2CC[C@H](NC(=O)c3cnc(N4CCC(CN5CCN(c6cc7c(cc6F)C(=O)N(C6CCC(=O)NC6=O)C7=O)CC5)CC4)c(F)c3)CC2)c2cccnc12 (some centres unmarked) [Compound 3-53] | < 10 | – | –
